Columns and labels:
[1] = target: Serine/threonine-protein kinase 38-like (Homo sapiens) (UniProt Q9Y2H1); assay: Inhibition of recombinant human NDR2 (83 to end residues) assessed as residual activity at 1 uM using RSRSRSRSRSRSRSR as substrate measured after 40 mins in presence of [gamma33P]ATP by scintillation counting method relative to control
[2] = test system: Mast/stem cell growth factor receptor Kit (Homo sapiens), P10721 [V560G]; assay: Inhibition of recombinant human C-Kit V560G mutant (544 to end residues) assessed as residual activity at 1 uM poly(Glu, Tyr) 4:1 as substrate incubated 40 mins in presence of [gamma-33ATP] by scintillation counting based radiometry assay relative to control
[3] = test system: Calcium/calmodulin-dependent protein kinase kinase 2 (Homo sapiens), Q96RR4 [T85S]; assay: Inhibition of recombinant full length human CaMKK2 T85S mutant assessed as residual activity at 1 uM […] incubated for 40 mins in presence of [gamma-33ATP] by scintillation counting based radiometry assay relative to control
[4] = target: CDK12/Cyclin K (Homo sapiens) (UniProt O75909+Q9NYV4); assay: Inhibition of recombinant full length human CDK12/cyclinK assessed as residual activity at 1 uM using RSRSRSRSRSRSRSR as substrate incubated for 120 mins in presence of [gamma-33ATP] by scintillation counting based radiometry assay relative to control; assay type: protein-complex assay
[5] = target: Phosphatidylinositol 4-phosphate 5-kinase type-1 alpha (Homo sapiens) (UniProt Q99755); assay: Inhibition of recombinant full-length human PIP5K1alpha at 1 uM assessed as residual activity at 1 uM using phosphatidylinositol 4-phosphate as substrate measured after 40 mins by HTRF assay
[6] = target: Serine/threonine-protein kinase Sgk3 (Homo sapiens) (UniProt Q96BR1); assay: Inhibition of recombinant human SGK3 (119 to end residues) assessed as residual activity at 1 uM using GRPRTSSFAEGKK as substrate measured after 40 mins in presence of [gamma33P]ATP by scintillation counting method relative to control
[7] = test system: Ribosomal protein S6 kinase beta-1 (Homo sapiens), P23443 [T412E]; assay: Inhibition of recombinant human p70S6K T412E mutant (1 to 421 residues) assessed as residual activity at 1 uM using KKRNRTLTV as substrate measured after 40 mins in presence of [gamma33P]ATP by scintillation counting method relative to control
[8] = target: G protein-coupled receptor kinase 6 (Homo sapiens) (UniProt P43250); assay: Inhibition of recombinant full length human GRK6 assessed as residual activity at 1 uM using casein as substrate at 40 mins in presence of [gamma-33ATP] by scintillation counting based radiometry assay relative to control
[9] = test system: Serine/threonine-protein kinase TAO3 (Homo sapiens), Q9H2K8 [UNDEFINED MUTATION]; assay: Inhibition of human TAO3 (1 to 411 residues) assessed as residual activity at 1 uM using myelin basic protein as substrate measured after 40 mins in presence of [gamma33P]ATP by scintillation counting method relative to control
[10] = target: Protein-tyrosine kinase 6 (Homo sapiens) (UniProt Q13882); assay: Inhibition of recombinant full length human BRK assessed as residual activity at 1 uM using poly(Glu, Tyr) 4:1 as substrate incubated for 40 mins in presence of [gamma-33ATP] by scintillation counting based radiometry assay relative to control
[11] = target: Leukocyte tyrosine kinase receptor (Homo sapiens) (UniProt P29376); assay: Inhibition of recombinant human LTK (450 to end residues) assessed as residual activity at 1 uM using GEEPLYWSFPAKKK as substrate after 40 mins in presence of [gamma-33ATP] by scintillation counting based radiometry assay relative to control
[12] = target: Serine/threonine-protein kinase D2 (Homo sapiens) (UniProt Q9BZL6); assay: Inhibition of recombinant full-length human PKD2 assessed as residual activity at 1 uM using KKLNRTLSVA as substrate measured after 40 mins in presence of [gamma33P]ATP by scintillation counting method relative to control
[13] = target: Homeodomain-interacting protein kinase 4 (Homo sapiens) (UniProt Q8NE63); assay: Inhibition of human HIPK4 assessed as residual activity at 1 uM using RRRFRPASPLRGPPK as substrate after 40 mins by [gamma-33ATP] radiometric assay relative to control
[14] = target: BDNF/NT-3 growth factors receptor (Homo sapiens) (UniProt Q16620); assay: Inhibition of human TrkB (455 to end residues) assessed as residual activity at 1 uM using poly(Glu, Tyr) 4:1 as substrate measured after 40 mins in presence of [gamma33P]ATP by scintillation counting method relative to control
[15] = target: Calcium/calmodulin-dependent protein kinase type 1D (Homo sapiens) (UniProt Q8IU85); assay: Inhibition of recombinant full length human CaMK1delta assessed as residual activity at 1 uM […] incubated for 40 mins in presence of [gamma-33ATP] by scintillation counting based radiometry assay relative to control
[16] = target: High affinity nerve growth factor receptor (Homo sapiens) (UniProt P04629); assay: Inhibition of human TrkA (440 to end residues) assessed as residual activity at 1 uM using KKKSPGEYVNIEFG as substrate measured after 40 mins in presence of [gamma33P]ATP by scintillation counting method relative to control
[17] = target: Receptor-interacting serine/threonine-protein kinase 2 (Homo sapiens) (UniProt O43353); assay: Inhibition of recombinant human RIPK2 (1 to 299 residues) assessed as residual activity at 1 uM using myelin basic protein as substrate measured after 120 mins in presence of [gamma33P]ATP by scintillation counting method relative to control
[18] = target: Calcium/calmodulin-dependent protein kinase type II subunit gamma (Homo sapiens) (UniProt Q13555); assay: Inhibition of recombinant human CaMK2gamma (1 to 330 residues) assessed as residual activity at 1 uM […] incubated for 40 mins in presence of [gamma-33ATP] by scintillation counting based radiometry assay relative to control
[19] = target: Myosin-IIIb (Homo sapiens) (UniProt Q8WXR4); assay: Inhibition of recombinant human MYO3B (1 to 306 residues) assessed as residual activity at 1 uM using RLGRDKYKTLRQIRQ as substrate measured after 40 mins in presence of [gamma33P]ATP by scintillation counting method relative to control
[20] = target: Serine/threonine-protein kinase VRK1 (Homo sapiens) (UniProt Q99986); assay: Inhibition of human VRK1 assessed as residual activity at 1 uM by radiometric method relative to control
[21] = target: Tyrosine-protein kinase ITK/TSK (Homo sapiens) (UniProt Q08881); assay: Inhibition of human Itk (352 to 617 residues) assessed as residual activity at 1 uM using myelin basic protein as substrate after 40 mins by [gamma-33ATP] radiometric assay relative to control
[22] = target: Platelet-derived growth factor receptor alpha (Homo sapiens) (UniProt P16234); assay: Inhibition of human PDGFRalpha (550 to end residues) assessed as residual activity at 1 uM poly(Glu, Tyr) 4:1 as substrate measured after 40 mins in presence of [gamma33P]ATP by scintillation counting method relative to control
Platelet-derived growth factor receptor alpha (Homo sapiens), sequence (P16234 whole entry): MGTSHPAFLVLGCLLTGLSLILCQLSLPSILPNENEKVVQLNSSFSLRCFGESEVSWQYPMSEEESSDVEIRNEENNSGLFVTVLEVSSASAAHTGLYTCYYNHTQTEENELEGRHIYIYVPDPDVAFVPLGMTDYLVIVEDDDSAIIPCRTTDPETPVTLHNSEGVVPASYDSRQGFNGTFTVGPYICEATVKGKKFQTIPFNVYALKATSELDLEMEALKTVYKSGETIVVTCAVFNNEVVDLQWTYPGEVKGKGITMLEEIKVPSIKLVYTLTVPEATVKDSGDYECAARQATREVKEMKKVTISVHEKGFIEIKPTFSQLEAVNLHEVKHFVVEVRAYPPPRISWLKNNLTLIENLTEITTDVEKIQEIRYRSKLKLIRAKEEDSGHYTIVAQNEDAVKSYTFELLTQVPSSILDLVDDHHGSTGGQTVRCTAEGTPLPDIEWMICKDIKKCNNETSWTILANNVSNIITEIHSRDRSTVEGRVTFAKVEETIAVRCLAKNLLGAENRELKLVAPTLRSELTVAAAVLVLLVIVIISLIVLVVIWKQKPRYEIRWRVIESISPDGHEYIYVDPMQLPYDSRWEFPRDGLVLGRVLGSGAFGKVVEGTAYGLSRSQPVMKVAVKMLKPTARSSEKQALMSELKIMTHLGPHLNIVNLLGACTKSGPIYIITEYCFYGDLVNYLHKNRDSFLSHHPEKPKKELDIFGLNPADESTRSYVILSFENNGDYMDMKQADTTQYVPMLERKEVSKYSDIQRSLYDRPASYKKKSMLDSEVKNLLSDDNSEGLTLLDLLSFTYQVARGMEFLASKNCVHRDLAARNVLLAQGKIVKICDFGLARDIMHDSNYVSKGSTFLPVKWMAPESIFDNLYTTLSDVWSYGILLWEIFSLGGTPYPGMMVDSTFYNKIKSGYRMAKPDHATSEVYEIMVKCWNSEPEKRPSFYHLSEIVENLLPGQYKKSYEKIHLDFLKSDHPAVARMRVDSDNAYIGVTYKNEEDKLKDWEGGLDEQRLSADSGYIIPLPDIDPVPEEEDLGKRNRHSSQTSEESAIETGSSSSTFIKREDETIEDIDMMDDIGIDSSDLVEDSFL

Calcium/calmodulin-dependent protein kinase kinase 2 (Homo sapiens), Q96RR4 [T85S], sequence (Q96RR4 whole entry T85S): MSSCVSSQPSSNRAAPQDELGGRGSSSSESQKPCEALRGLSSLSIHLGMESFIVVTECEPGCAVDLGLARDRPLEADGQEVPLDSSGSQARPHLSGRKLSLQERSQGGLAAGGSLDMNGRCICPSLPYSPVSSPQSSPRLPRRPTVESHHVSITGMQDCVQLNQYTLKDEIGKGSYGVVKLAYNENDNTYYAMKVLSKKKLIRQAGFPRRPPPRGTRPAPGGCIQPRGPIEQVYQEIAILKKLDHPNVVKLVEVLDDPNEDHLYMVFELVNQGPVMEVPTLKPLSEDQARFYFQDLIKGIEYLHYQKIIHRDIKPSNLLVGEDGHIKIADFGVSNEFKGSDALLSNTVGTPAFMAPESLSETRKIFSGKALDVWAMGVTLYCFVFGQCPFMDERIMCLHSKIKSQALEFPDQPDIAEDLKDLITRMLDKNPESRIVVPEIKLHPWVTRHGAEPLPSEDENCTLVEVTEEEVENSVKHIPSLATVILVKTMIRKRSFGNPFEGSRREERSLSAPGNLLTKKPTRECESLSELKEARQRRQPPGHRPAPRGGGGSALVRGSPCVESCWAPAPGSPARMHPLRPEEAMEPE
Phosphatidylinositol 4-phosphate 5-kinase type-1 alpha (Homo sapiens), sequence (Q99755 whole entry): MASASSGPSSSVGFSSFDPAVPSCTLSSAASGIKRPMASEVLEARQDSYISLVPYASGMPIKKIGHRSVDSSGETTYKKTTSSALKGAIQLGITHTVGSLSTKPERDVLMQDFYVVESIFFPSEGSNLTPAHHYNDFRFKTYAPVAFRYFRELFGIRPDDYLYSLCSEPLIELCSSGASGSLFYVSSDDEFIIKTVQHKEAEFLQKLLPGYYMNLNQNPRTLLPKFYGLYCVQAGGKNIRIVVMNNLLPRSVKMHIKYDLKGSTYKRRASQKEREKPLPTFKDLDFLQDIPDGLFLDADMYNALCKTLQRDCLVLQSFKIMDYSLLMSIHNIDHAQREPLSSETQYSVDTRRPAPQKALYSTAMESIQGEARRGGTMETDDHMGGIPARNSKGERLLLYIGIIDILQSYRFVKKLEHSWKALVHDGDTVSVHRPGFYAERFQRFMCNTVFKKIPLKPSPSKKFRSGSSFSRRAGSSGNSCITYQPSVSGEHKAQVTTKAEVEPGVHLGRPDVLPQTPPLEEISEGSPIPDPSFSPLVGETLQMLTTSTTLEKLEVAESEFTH
BDNF/NT-3 growth factors receptor (Homo sapiens), sequence (Q16620 32-822 limits assumed): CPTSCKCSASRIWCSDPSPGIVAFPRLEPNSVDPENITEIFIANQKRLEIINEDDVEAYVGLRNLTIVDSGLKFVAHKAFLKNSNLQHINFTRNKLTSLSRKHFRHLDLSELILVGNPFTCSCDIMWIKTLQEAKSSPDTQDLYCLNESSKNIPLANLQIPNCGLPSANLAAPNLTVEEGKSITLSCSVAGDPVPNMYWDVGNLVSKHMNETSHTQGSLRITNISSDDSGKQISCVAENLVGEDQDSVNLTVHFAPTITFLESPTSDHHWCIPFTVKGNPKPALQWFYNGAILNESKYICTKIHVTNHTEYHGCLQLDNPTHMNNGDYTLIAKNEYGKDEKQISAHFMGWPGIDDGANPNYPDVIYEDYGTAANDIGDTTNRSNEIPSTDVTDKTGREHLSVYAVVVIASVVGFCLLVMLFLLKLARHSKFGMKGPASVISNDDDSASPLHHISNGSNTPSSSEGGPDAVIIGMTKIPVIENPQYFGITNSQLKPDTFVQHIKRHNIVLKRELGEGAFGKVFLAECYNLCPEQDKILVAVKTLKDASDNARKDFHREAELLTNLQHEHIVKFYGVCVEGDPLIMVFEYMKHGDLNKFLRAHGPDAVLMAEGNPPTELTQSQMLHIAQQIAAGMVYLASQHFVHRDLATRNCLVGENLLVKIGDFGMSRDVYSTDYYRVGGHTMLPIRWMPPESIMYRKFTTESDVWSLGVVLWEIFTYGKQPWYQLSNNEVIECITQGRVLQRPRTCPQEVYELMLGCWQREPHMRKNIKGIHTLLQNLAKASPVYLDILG
G protein-coupled receptor kinase 6 (Homo sapiens), sequence (P43250 whole entry, looked up, the tested form may be a part): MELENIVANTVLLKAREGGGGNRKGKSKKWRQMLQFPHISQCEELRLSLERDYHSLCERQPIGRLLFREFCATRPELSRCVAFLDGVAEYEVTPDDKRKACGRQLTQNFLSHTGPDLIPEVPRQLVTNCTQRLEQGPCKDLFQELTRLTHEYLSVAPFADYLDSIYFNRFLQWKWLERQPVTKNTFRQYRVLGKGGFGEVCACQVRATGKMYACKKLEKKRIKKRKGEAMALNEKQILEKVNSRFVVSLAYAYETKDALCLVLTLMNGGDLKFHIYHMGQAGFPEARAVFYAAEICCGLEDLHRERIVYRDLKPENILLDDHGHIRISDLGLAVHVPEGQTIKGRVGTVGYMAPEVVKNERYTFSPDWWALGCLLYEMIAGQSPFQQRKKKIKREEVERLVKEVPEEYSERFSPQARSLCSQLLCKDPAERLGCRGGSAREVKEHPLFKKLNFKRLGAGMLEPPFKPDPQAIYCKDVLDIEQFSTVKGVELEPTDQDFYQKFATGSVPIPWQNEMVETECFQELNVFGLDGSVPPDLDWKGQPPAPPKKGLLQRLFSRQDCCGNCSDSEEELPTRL
Mast/stem cell growth factor receptor Kit (Homo sapiens), P10721 [V560G], sequence (P10721 whole entry V560G): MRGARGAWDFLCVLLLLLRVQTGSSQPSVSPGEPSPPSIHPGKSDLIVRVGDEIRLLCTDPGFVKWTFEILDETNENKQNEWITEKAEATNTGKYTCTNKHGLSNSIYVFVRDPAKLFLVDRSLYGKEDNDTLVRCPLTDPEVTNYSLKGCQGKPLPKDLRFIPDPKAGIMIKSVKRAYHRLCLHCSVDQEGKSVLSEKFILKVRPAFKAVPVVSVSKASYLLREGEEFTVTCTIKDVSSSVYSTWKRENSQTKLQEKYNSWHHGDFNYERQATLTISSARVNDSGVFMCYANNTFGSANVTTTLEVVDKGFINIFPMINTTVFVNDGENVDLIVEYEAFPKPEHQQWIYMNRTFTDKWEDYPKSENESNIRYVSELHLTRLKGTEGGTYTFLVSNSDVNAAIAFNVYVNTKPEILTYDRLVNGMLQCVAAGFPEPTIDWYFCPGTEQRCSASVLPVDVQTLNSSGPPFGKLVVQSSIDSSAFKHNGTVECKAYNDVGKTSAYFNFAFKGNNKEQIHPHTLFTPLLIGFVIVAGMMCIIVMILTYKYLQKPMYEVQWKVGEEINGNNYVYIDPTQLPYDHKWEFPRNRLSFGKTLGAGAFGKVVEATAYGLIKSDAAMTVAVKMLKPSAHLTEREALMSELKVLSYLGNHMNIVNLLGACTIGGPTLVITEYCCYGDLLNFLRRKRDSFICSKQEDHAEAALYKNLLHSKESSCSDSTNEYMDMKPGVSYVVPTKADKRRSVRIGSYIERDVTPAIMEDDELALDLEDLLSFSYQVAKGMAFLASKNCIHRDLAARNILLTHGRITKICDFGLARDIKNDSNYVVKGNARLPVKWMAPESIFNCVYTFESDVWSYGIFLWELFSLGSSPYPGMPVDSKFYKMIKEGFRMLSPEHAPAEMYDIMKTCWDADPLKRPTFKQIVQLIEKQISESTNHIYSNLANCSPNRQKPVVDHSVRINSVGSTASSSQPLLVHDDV
Calcium/calmodulin-dependent protein kinase type 1D (Homo sapiens), sequence (Q8IU85 whole entry, looked up): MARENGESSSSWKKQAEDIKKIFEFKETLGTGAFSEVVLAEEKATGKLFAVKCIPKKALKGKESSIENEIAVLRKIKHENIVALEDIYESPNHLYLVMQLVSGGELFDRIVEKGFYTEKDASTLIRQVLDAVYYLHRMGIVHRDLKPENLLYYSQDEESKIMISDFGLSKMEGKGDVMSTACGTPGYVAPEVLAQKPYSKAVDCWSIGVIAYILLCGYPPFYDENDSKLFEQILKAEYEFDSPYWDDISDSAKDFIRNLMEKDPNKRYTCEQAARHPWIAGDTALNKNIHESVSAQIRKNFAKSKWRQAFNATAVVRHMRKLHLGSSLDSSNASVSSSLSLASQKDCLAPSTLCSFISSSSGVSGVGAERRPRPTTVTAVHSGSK

| SMILES | Activity [1] | Activity [2] | Activity [3] | Activity [4] | Activity [5] | Activity [6] | Activity [7] | Activity [8] | Activity [9] | Activity [10] | Activity [11] | Activity [12] | Activity [13] | Activity [14] | Activity [15] | Activity [16] | Activity [17] | Activity [18] | Activity [19] | Activity [20] | other results |
| --- | --- | --- | --- | --- | --- | --- | --- | --- | --- | --- | --- | --- | --- | --- | --- | --- | --- | --- | --- | --- | --- |
| N=C1NC(=O)/C(=C\c2ccc(-c3cccc([N+](=O)[O-])c3)o2)S1 | 92% | 92% | 92% | 98% | 102% | 109% | 99% | 102% | 81% | 103% | 114% | 103% | 92% | 98% | 93% | 93% | 66% | 86% | 98% | 92% | Activity [21]: 98%; Activity [22]: 104% |
| C=CCOC(=O)c1cc(-c2ccc(/C=C3/NC(=S)NC3=O)o2)ccc1Cl | 118% | 100% | 94% | 96% | 98% | 96% | 108% | 104% | 87% | 106% | 104% | 99% | 97% | 92% | 87% | 100% | 62% | 68% | 105% | 99% | Activity [21]: 107%; Activity [22]: 92% |
